For three molecules, MIC, inhibition zone and IC50 results are on record in patent publication US11970509B1, “Water soluble nano-sized imine Ru(III) complex based on 4-aminobenzene sodium sulphonate for biomedical applications” (KING FAISAL UNIVERSITY, priority 2023, dated 2024).

Values after ≈ are worked out from the molar mass of the structure shown.

In one experiment the test system is Escherichia coli(-ve). Briefly: Antimicrobial activity, agar well diffusion method, E. coli. Type of experiment: cell-based. On the procedure:
To evaluate antimicrobial activity, the bacterial strain Escherichia coli(-ve), was used. These strains cultured in nutrient agar and Muller-Hinton medium. Ofloxacin compounds were used as a standard drug for comparison. The susceptibilities of such growth rate of microorganisms were measured in vitro by agar well diffusion method. The tested nano complex was dissolved in dimethylsulfoxide at different concentrations (10 and 20 mg/ml). 1 cm^3 of a 24 h broth culture containing 10^6 CFU/cm^3 was placed in sterile Petri-dishes. Molten nutrient agar (15 cm^3) maintained at 45° C. was then poured into the Petri-dishes and allowed to solidify. Then holes of 6 mm diameter were formed in the agar using a sterile cork borer and these holes were completely filled with the test solutions. The plates were incubated for 24 h at 37° C. After the incubation period, the zone of inhibition of each well was determined by measuring the zones of growth inhibition (mm) against the test microorganisms with zone reader (Hi Antibiotic zone scale). […] The measurements were made in triplicate for each compound and their average values are reported.
For orientation: Agar diffusion results depend on both activity and mobility in agar.

In the next experiment the test system is Breast cancer cells line. Briefly: Cytotoxic activity, Sulfo-Rhodamine-B-stain (SRB), breast cancer cell line. The note with it: Homo sapiens, 48 h.
The test system of the next experiment is Aspergillus flavus. Briefly: Antifungal activity, well diffusion method, Aspergillus flavus. The experiment is classed as cell-based. On the procedure: To evaluate antimicrobial activity, the fungal strain (Aspergillus flavus), was used. These strains cultured in nutrient agar and Muller-Hinton medium. Fluconazole compounds were used as a standard drug for comparison.
Antifungal activities of the prepared water soluble nano-complex were studied against three fungal cultures using well diffusion method. The tested fungi were inoculated in Sabouraud dextrose broth medium (Hi-Media Mumbai) and incubated at 35° C. for 72 h and subsequently a suspension of about 1.60×10^4-6.00×10^4 c.f.u/ml was introduced agar plates and a sterile glass spreader was used for even distribution of the inoculum. The discs measuring 6 mm in diameter were prepared from Whatman No. 1 filter paper and sterilized by dry heat at 140° C. for 1 h. The sterile discs previously soaked in known concentration of the tested compounds were placed in Sabouraud dextrose Agar (SDA) plates. The plates were inverted and incubated at 35° C. for 7 days. The susceptibility was assessed on the basis of diameter of inhibition against albicans and non-albicans strain of fungi.

Take `CC1COc2c(N3CCN(C)CC3)c(F)cc3c(=O)c(C(=O)O)cn1c23` (centres unmarked) [Ofloxacin, reference compound]: the MIC (commonly the smallest concentration in the dilution series that meets the test's criterion for growth inhibition) in the experiment with Escherichia coli(-ve) (Escherichia coli) was determined as 2.5 µg/mL (≈ 6.92 µM). This molecule also showed an inhibition zone with Escherichia coli(-ve) (agar well diffusion, 24 h at 37° C.) of 38 mm.

With `COc1cccc2c1C(=O)c1c(O)c3c(c(O)c1C2=O)C[C@@](O)(C(=O)CO)C[C@@H]3O[C@H]1C[C@H](N)[C@H](O)[C@H](C)O1` [Doxorubicin, reference compound], half-maximal inhibition with Breast cancer cells line (IC50) was put at 4 µg/mL (≈ 7.36 µM). `OC(Cn1cncn1)(Cn1cncn1)c1ccc(F)cc1F` [Fluconazol, reference compound] came in with an MIC against Aspergillus flavus of 1.75 µg/mL (≈ 5.71 µM). This molecule displayed an inhibition zone in the experiment with Aspergillus flavus (well diffusion, 35° C. for 7 days) of 28 mm.
